The target of series [1] is CDK6 (Homo sapiens, UniProt Q00534). The note with it: cited from earlier work.
The test system of series [2] is many common kinases other than CDK's. The settings on record: cited from earlier work.
For series [3], the target named is CDK4 (Homo sapiens, UniProt P11802). The settings on record: cited from earlier work.
For series [4] the following is noted: disclosed in WO 99/02162; cited from earlier work.
Series [5] deals with CDK1(cdc2)/cyclin B complexes. The note with it: disclosed in WO 99/02162; cited from earlier work.
For series [6], the target named is p34 cdc2(CDK1)/cyclinB. The experiment in a line: CDK assay: histone H1 phosphorylation with [32P]ATP by cdc2/cyclinB kinase. The note with it: read-out: IC50 ± SD CDK1. Format: biochemical, starfish (Marthasterias glacialis). As for the experimental part:
Assays are available for testing the inhibitory activity of the compounds of interest against a range of CDK/cyclin complexes, including CDK1/cyclin A, CDK1/cyclin B, CDK1/cyclin F, CDK2/cyclin A, CDK2/cyclin E, CDK4/cyclin D, CDK5/35 and CDK6/cyclin D3. […]
(§1) By way of example, however, a typical protocol is summarised below.
Buffer C (containing 6 mM β-glycerophosphate, 30 mM nitrophenyl phosphate, 25 mM MOPS pH 7.0, 5 mM EGTA, 15 mM MgCl2, […] and 0.1 mM sodium orthovanadate) is made up as follows:
Affinity purified p34 cdc2(CDK1)/cyclinB from M-phase starfish (Marthasterias glacialis) in 20% glycerol is stored at −80° C. in chest freezer
Histone H1 (type III-S (Sigma) 4° C.) 5 mg/ml in buffer C.
[^32P]ATP 75 mM: Make up using (multiples of) the following proportions:
DMSO cannot exceed 1% in the assay mixture. Inhibitors are added at 1/10 final assay volume and 10× final strength. DMSO stocks must therefore be diluted to 10× final desired concentration in ≦10% DMSO, ≧90% buffer C.
All reagents (except DMSO stocks) should be kept on ice until assay initiated.
Start reaction in each tube at 30 second intervals b)y adding
5 ml [^32P]ATP vortexing and placing in rack in waterbath at 30° C.
Terminate reaction after 10 min at 30 second intervals in tubes in same order by removing […] reaction mix and spotting onto appropriately labelled filter, allowing to dry for 20-30 seconds and transferring to stirring 1% phosphoric acid.
Blank incubation is performed as above but without histone (add […] buffer C instead) Washing blank is […] ATP added directly to filter.
Wash filters 5-6 times 5 min each
Dry the filters on paper towel
Count in mini scintillation vials with 5 ml scintillant.
NB. The assay can be simplified by making up stock reaction mix as follows:
(1 part cdc2/cyclinB, 16 parts buffer C, 5 parts histone H1)×Number of assay tubes+1 and add […] to each assay tube containing […] buffer C±inhibitor.
It is still necessary, however, to make up assay blank (i.e. without histone) separately.

Series [7] addresses CDK2 (Homo sapiens, UniProt P24941). Nature of the series: Inhibition of CDK2 (CDK inhibition assay). Format: biochemical. The note with it: read-out: IC50 ± SD CDK2.
Text: Assays are available for testing the inhibitory activity of the compounds of interest against a range of CDK/cyclin complexes, including CDK1/cyclin A, CDK1/cyclin B, CDK1/cyclin F, CDK2/cyclin A, CDK2/cyclin E, CDK4/cyclin D, CDK5/35 and CDK6/cyclin D3.
Apart from reference compounds, the compounds listed are accompanied by an NU reference or identification code number.
as §1

Several values for one entry are separate records, joined by “and”; a condition that tells them apart may be missing. Equal entries are not always repeated. Where two headings read alike, the source gives them in different places.

CDK4, sequence (P11802 whole entry, species assumed): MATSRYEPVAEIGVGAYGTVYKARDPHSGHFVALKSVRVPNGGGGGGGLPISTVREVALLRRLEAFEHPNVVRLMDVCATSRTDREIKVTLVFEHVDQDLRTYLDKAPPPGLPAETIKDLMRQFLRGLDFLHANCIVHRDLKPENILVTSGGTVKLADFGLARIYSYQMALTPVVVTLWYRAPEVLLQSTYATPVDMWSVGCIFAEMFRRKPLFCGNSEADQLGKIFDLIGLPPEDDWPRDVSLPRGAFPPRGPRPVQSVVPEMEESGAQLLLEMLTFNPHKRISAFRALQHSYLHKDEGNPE
CDK4, sequence (P24385 whole entry partner, species assumed): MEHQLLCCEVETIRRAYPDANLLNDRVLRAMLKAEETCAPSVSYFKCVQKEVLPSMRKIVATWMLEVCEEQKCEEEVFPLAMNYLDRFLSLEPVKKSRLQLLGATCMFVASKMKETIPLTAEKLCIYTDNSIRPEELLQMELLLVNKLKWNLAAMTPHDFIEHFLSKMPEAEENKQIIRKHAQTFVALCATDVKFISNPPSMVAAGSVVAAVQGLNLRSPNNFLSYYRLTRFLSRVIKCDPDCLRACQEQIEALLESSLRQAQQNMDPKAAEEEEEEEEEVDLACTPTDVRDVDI
CDK6, sequence (Q00534 whole entry, species assumed): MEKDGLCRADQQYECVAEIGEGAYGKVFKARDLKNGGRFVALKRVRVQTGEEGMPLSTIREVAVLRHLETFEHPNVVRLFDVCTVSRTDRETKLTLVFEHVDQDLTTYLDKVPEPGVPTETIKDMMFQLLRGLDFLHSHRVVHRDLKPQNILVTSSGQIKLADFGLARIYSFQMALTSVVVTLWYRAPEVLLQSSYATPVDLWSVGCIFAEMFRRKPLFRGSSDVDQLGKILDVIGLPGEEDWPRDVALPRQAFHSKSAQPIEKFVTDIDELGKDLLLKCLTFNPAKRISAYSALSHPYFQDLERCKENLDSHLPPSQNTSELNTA
CDK6, sequence (P30281 whole entry partner, species assumed): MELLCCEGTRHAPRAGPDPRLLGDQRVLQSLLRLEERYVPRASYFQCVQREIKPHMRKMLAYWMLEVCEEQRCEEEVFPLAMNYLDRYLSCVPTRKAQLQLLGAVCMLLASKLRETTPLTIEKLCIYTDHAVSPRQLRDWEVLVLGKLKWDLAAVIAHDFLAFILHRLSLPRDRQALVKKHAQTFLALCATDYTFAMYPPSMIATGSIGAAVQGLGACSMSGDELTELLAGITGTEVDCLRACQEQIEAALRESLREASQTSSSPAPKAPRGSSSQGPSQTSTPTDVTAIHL

As for `Cn1cnc2c(NCc3ccccc3)nc(NCCO)nc21` [Olomoucine, 2-(2-hydroxyethylamino)-6-benzylamino-9-methyl-purine], the “activity against CDK6” value in series [1] was “neither has been found to be active”. Moreover, in series [2], the “inhibitory activity in relation to many common kinases other than CDK's” value is reported as “total lack of inhibitory activity”. For the same compound, in series [3], the “activity against CDK4” value is reported as “neither has been found to be active”.
By IC50 is commonly meant the concentration at which inhibition is half-maximal. Turning to `Nc1nc(OCC2CCCCC2)c2nc[nH]c2n1` [NU2058, 2-Amino-O^6-cyclohexylmethylpurine], the cytotoxicity result in series [4] was “cytotoxic”. Further, in series [5], the “inhibitory activity against CDK1(cdc2)/cyclin B complexes” value was “very high inhibitory activity, comparable to that of olomoucine”. In series [6] (values given in μM), the IC50 was 7 ± 0.7 µM.
Regarding `CC(=O)c1ccc(Nc2nc(OCC3CCCCC3)c3nc[nH]c3n2)cc1` [NU6125], the IC50 in series [7] (values given in μM) came to 0.3 ± 0.04 µM; in series [6] (values given in μM) it was 0.5 ± 0.2 µM.
For `NS(=O)(=O)c1ccc(Nc2nc(OCC3CCCC3)c3nc[nH]c3n2)cc1` [NU6166, 4-[6-Cyclopentylmethoxy-9H-purin-2-ylamino)-benzenesulfonamide], the concentration for half-maximal inhibition (IC50) turned out to be 0.007 ± 0.001 µM in series [7] (values in nM) and 0.014 ± 0.003 µM in series [6] (values in nM).
`NS(=O)(=O)c1ccc(CNc2nc(OCC3CCCCC3)c3nc[nH]c3n2)cc1` [NU6124, 4-[(6-Cyclohexylmethoxypurine-2-ylamino)methyl]benzenesulfonamide]: the IC50 was 15 µM and 13 µM in series [7] (values given in μM); 17 ± 0.3 µM in series [6] (values given in μM).
In the case of `CC[C@H](CO)Nc1nc(NCc2ccccc2)c2ncn(C(C)C)c2n1` [roscovitine, 6-(benzylamino)-2(R)-[{1-(hydroxy-methyl)propyl}amino]-9-isopropylpurine], the “activity against CDK6” value in series [1] was “neither has been found to be active”. Also, in series [3], the “activity against CDK4” value is recorded as “neither has been found to be active”.
For the compound `O=S(=O)(Nc1ccccn1)c1ccc(Nc2nc(OCC3CCCCC3)c3nc[nH]c3n2)cc1` [NU6154, 4-(6-Cyclohexylmethoxy-9H-purin-2-ylamino)-(N-pyridin-2-yl)benzenesulfonamide], the values for the IC50 in series [7] (values in nM) and in series [6] (values in nM) were 0.027 ± 0.002 µM and 0.02 ± 0.006 µM, respectively.
For `O=S(=O)(NCCO)c1ccc(Nc2nc(OCC3CCCCC3)c3nc[nH]c3n2)cc1` [NU6144, 4-(6-Cyclohexylmethoxy-9H-purin-2-ylamino)-N-(2-hydroxyethyl)benzenesulfonamide], the 50% inhibitory concentration (IC50) was 0.004 ± 0.0015 µM in series [7] (values in nM) and 0.008 ± 0.0002 µM in series [6] (values in nM).
Turning to `N#CCc1ccc(Nc2nc(OCC3CCCCC3)c3nc[nH]c3n2)cc1` [NU6121, 6-Cyclohexylmethoxy-2-(4′-cyanomethylanilino)purine], the IC50 in series [7] (values given in μM) turned out to be 0.3 ± 0.03 µM; in series [6] (values given in μM) it was 0.3 ± 0.1 µM.
As for `CC(O)CNS(=O)(=O)c1ccc(Nc2nc(OCC3CCCCC3)c3nc[nH]c3n2)cc1` (centres unmarked) [NU6146, 4-(6-Cyclohexylmethoxy-9H-purin-2-ylamino)-N-(2-hydroxypropyl)benzenesulfonamide], the IC50 in series [7] (values in nM) came out at 0.005 ± 0.001 µM; in series [6] (values in nM), 0.014 ± 0.007 µM.
For `O=S(=O)(Nc1nccs1)c1ccc(Nc2nc(OCC3CCCCC3)c3nc[nH]c3n2)cc1` [NU6145, 4-(6-Cyclohexylmethoxy-9H-purin-2-ylamino)-N-thiazol-2-ylbenzenesulfonamide], in that order: 0.024 µM and 0.037 µM.
For `C[C@H](O)CNS(=O)(=O)c1ccc(Nc2nc(OCC3CCCCC3)c3nc[nH]c3n2)cc1` [NU6167, 4-(6-Cyclohexylmethoxy-9H-purin-2-ylamino)-N-(2-hydroxypropyl)benzenesulfonamide], the IC50 in series [7] (values in nM) stood at 0.006 ± 0.001 µM; in series [6] (values in nM), 0.009 ± 0.0002 µM.
Turning to `O=S(=O)(NCc1ccccc1)c1ccc(Nc2nc(OCC3CCCCC3)c3nc[nH]c3n2)cc1` [NU6123, N-Benzyl-4-(cyclohexylmethoxypurine-2-ylamino)-benzenesulfonamide], the results for the half-inhibitory concentration (IC50) in series [7] (values given in μM) and in series [6] (values given in μM) were 0.2 ± 0.1 µM and 0.7 ± 0.3 µM, respectively.
For `CCNS(=O)(=O)c1ccc(Nc2nc(OCC3CCCCC3)c3nc[nH]c3n2)cc1` [NU6129, 4-(6Cyclohexylmethoxy-2-ylamino)-N-ethylbenzenesulfonamide], the IC50 in series [7] (values in nM) was 0.008 ± 0.002 µM; in series [6] (values in nM) it was 0.007 µM and 0.009 µM.
Consider `CCNC(=O)c1ccc(Nc2nc(OCC3CCCCC3)c3nc[nH]c3n2)cc1` [NU6143, 4-(6-Cyclohexylmethoxy-9H-purin-2-ylamino)-N-ethylbenzamide], for which the half-inhibitory concentration (IC50) in series [7] (values in nM) and in series [6] (values in nM) was over 0.1 µM in each case.

Source of the values: US20040110775A1, “Cyclin dependent kinase inhibiting purine derivatives” (priority 2001, published 2004).
